Experimental data taken from patent US20080031922A1, “Delivery System” (priority 2004, published 2008).
Several values for one entry are separate records, joined by “and”; a condition that tells them apart may be missing. Identical values can stand only once.

How the values were obtained:
Type in all cases: physicochemical
[1] = in vitro release rate of FAP from intrauterine system (IUS)
Experimental: The release rate of the therapeutically active substance from the device was measured in vitro as follows:
The devices (implant, intravaginal ring, intracervical or intrauterine system) were attached into a stainless steel holder in vertical position and the holders with the devices were placed into glass bottles containing 75 ml of a dissolution medium, a 1 wt-% hydroxypropyl cyclodextrin solution. The glass bottles were shaked in shaking waterbath 100 rpm at 37° C. The dissolution medium was withdrawn and replaced by a fresh dissolution medium at predetermined time intervals, and the amount of the released substance was analysed by using standard HPLC methods. The concentration of the dissolution medium and the moment of change (withdrawal and replacement) of medium were selected, so that sink-conditions were maintained during the test.
HPBCD modification was tested with a fluorinated antiprogestin derivative (FAP, 11-(4-Acetylphenyl)-17-hydroxy-17-(1,1,2,2,2-pentafluoroethyl)estra-4,9-dien-3-one) in intrauterine (IUS) system. Two samples of 1 and 4 wt-% of HPBCD content in the membrane were prepared by combining with swelling separately extruded membrane and core elastomer rods over the IUS T-frame. The swelling agent was isopropanol.
The content of the therapeutically active agent in the core elastomer was 65 wt-% and the outer diameter of the core was 2.88-2.92 mm and length 21.0-21.1 mm. The membrane was 3 mm longer than the core and the thickness of the membrane was 0,25 mm. FIG. 3 presents the release rate of the therapeutically active agent (μg/d, shown in the y-axis) from two FAP containing intrauterine systems as a function of time (days, shown in the x-axis) compared to a reference sample. Indeed, the squares represent the results for the reference sample, the losanges illustrate the results for the cyclodextrin modified membrane, when the amount of cyclodextrin was 1 wt-% and the triangles represent the results for the cyclodextrin modified membrane, when the amount of cyclodextrin was 4 wt-%.

[2] = in vitro release rate of danazol from intravaginal ring (IVR)
Experimental: The release rate of the therapeutically active substance from the device was measured in vitro as follows: The devices (implant, intravaginal ring, intracervical or intrauterine system) were attached into a stainless steel holder in vertical position and the holders with the devices were placed into glass bottles containing 75 ml of a dissolution medium, a 1 wt-% hydroxypropyl cyclodextrin solution. The glass bottles were shaked in shaking waterbath 100 rpm at 37° C. The dissolution medium was withdrawn and replaced by a fresh dissolution medium at predetermined time intervals, and the amount of the released substance was analysed by using standard HPLC methods. The concentration of the dissolution medium and the moment of change (withdrawal and replacement) of medium were selected, so that sink-conditions were maintained during the test. […] Hydroxypropyl β-cyclodextrin (HPBCD) was used as the regulating agent. Three different implants with different hydroxypropyl β-cyclodextrin (HPBCD) contents in the membrane were made and the results were compared to corresponding implants without any added HPBCD. All the implants consisted of a core containing the therapeutically active agent and a release rate-controlling membrane encasing the core. The core and the membrane silicone elastomer rods were manufactured by extrusion and the implant compositions were made by swelling the membrane in propanol, as explained above. The content of the therapeutically active agent was 20 wt-% (weight percent) in the core and the micronized hormone was mixed into the elastomer with a mixer before extrusion. The diameters of the IVR rings were ca. 50-55 mm and the periphery of the cross section ca. 9-10 mm, the thicknesses of the membranes were 0.25, 0.35 and 0.7 mm and the HPBCD contents of the membrane were 0.17 wt-%, 1.7 wt-% and 7.7 wt-% respectively. The results are shown in FIG. 1 for the daily in vitro release rate per core area (μg/(d*mm^2), shown as the y axis and days shown in the x-axis), wherein the empty triangles represent the results for 0.17 wt-% HPBCD-content in the membrane with 0.7 mm wall thickness. The empty squares illustrate the results for 1.7 wt-% HPBCD-content in the membrane with 0.35 mm wall thickness and the stars show the results for 7.7 wt-% HPBCD-content in the membrane with 0.25 mm wall thickness. The full triangles represent the comparative results for a membrane with wall thickness of 0.3 mm and the full squares illustrate the comparative results for a membrane with wall thickness of 0.9 mm.

[3] = in vitro release rate of gestodene from implant
Experimental: The release rate of the therapeutically active substance from the device was measured in vitro as follows: The devices (implant, intravaginal ring, intracervical or intrauterine system) were attached into a stainless steel holder in vertical position and the holders with the devices were placed into glass bottles containing 75 ml of a dissolution medium, a 1 wt-% hydroxypropyl cyclodextrin solution. The glass bottles were shaked in shaking waterbath 100 rpm at 37° C. The dissolution medium was withdrawn and replaced by a fresh dissolution medium at predetermined time intervals, and the amount of the released substance was analysed by using standard HPLC methods. The concentration of the dissolution medium and the moment of change (withdrawal and replacement) of medium were selected, so that sink-conditions were maintained during the test. The present invention was also tested with an implant containing gestodene, a synthetic progestogene hormone. The implant core and membrane rods were made with extrusion and the implant composition was made by swelling the membrane in propanol. The outer diameter of the implant core was 2.5-3.0 mm and the length 40-48 mm. The content of the therapeutically active agent in the core was 65 wt-%. The membrane thickness was 0.25 mm, inner diameter 2.35-2.65 mm, outer diameter was 3.0-3.25 mm and length 10 mm longer than the elastomer core. The HPBCD content of the implant membrane was 4 wt-%. The membrane was made of PEO-b-PDMS (15 wt-%) and PDMS (85 wt-%). The results are shown in FIG. 2 as the release rate of the therapeutically active agent (μg/d, shown in y-axis) versus time (days, shown in x-axis), wherein the squares represent the results for the Reference 1, the losanges represent the results for an implant having a HPBCD-containing membrane and the triangles illustrate the results for Reference 2. Reference 1 comprises a core having an outer diameter of 2.5 mm and a length of 40 mm, and a membrane, the thickness of which is 0.25 mm. The implant having a membrane containing 1 wt-% HPBCD has a core with an outer diameter of 3.03 mm and a length of 44 mm, and the membrane wall of 0.25 mm. Reference 2 comprises a core having an outer diameter of 2.8 mm, a length of 48 mm and the membrane with a wall of 0.25 mm.

Question: Which burst effect ([1]; amount of cyclodextrin in membrane 1 wt-%) does the source give for CC(=O)c1ccc(C2C[C@@]3(C)[C@@H](CCC3(O)C(F)(F)C(F)(F)F)[C@@H]3CCC4=CC(=O)CCC4=C23)cc1 (stereo partly drawn) [FAP, 11-(4-Acetylphenyl)-17-hydroxy-17-(1,1,2,2,2-pentafluoroethyl)estra-4,9-dien-3-one] here?
Answer: still some burst effect remaining

Question: And the “level of the release rate” value ([1]; amount of cyclodextrin in the membrane 4 wt-% (vs 1 wt-%))?
Answer: higher

Question: What about the “release rate profile compared to reference sample” value ([1]; both cyclodextrin modified samples (1 and 4 wt-%)) of the same compound?
Answer: higher

Question: What about the initial burst ([1]; both cyclodextrin-modified membranes (1 and 4 wt-% HPBCD) vs reference sample, FIG. 3) of the same compound?
Answer: decreased

Question: What about the “shape of the curve of the release rate after two days” value ([1]; reference and modified samples compared) of the same compound?
Answer: similar

Question: What does the source list for C#C[C@]1(O)CC[C@H]2[C@@H]3CCC4=Cc5oncc5C[C@]4(C)[C@H]3CC[C@@]21C [danazol, (17alpha)-pregna-2,4-dien-20-yn[2,3-d]isoxazol-17-ol]?
Answer: release rate when HPBCD is added into the membrane ([2]; HPBCD modified IVR vs reference samples): seems to be higher; release rate trend over time ([2]; HPBCD modified IVR, first two weeks, up to the zenith point): slightly increasing trend; release rate compared to ordinary ring with 0.9 mm wall ([2]; IVR with 0.17 w-% HPBCD content and 0.7 mm membrane wall, two and half week release): stays equal; initial burst without the modification relative to that found for modified samples ([2]; IVR without HPBCD (membrane wall 0.3 and 0.9 mm) vs HPBCD modified samples, FIG. 1): five to ten times; initial burst without the modification relative to the release rate in two weeks dissolution ([2]; IVR without HPBCD (membrane wall 0.3 and 0.9 mm), FIG. 1): three to five times; initial burst effect ([2]; IVR, all HPBCD modified samples (0.17, 1.7, 7.7 wt-% HPBCD in membrane; wall 0.7, 0.35, 0.25 mm), 1 wt-% hydroxypropyl cyclodextrin medium, 37° C, FIG. 1): negative initial burst effect

Question: Which “total decrease of release in 14 days” value ([3]; both reference samples (implants without HPBCD in membrane), FIG. 2) does the source give for C#C[C@]1(O)C=C[C@H]2[C@@H]3CCC4=CC(=O)CC[C@@H]4[C@H]3CC[C@@]21CC [gestodene] here?
Answer: 30%

Question: And the “total decrease of the gestodene release from the second to the third week” value ([3]; implant with cyclodextrin (HPBCD) modified membrane)?
Answer: 0.5%

Question: And the “maximum decrease of release in two weeks” value ([3]; implant with cyclodextrin (HPBCD) modified membrane, FIG. 2)?
Answer: ca. 6%

Question: And the “decrease of the gestodene release from the second to the third week” value ([3]; reference samples (implants without HPBCD in membrane))?
Answer: 8.4% and 11%
